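Assay format: 96-well plates, 48-hour exposure. GI50 = concentration required for 50% inhibition of growth. TGI denotes the concentration required for complete inhibition of growth.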
Legend:
Assay in all cases: NCI tumour cell line growth inhibition, 48 h
[1] = system: CAKI-1 renal
[2] = system: EKVX NSCLC
[3] = system: HS 578T breast
[4] = system: IGROV1 ovarian
[5] = system: K-562 leukemia
[6] = system: OVCAR-3 ovarian
[7] = system: OVCAR-5 ovarian
[8] = system: UACC-257 melanoma
[9] = system: UACC-62 melanoma
[10] = system: SR leukemia

Row | SMILES | TGI [1] [µM] | TGI [2] [µM] | TGI [3] [µM] | TGI [4] [µM] | TGI [5] [µM] | TGI [6] [µM] | TGI [7] [µM] | TGI [8] [µM] | TGI [9] [µM] | TGI [10] [µM] | GI50 [1] [µM] | GI50 [2] [µM] | GI50 [3] [µM] | GI50 [4] [µM] | GI50 [6] [nM] | GI50 [7] [µM] | GI50 [10] [µM] | GI50 [8] [µM] | GI50 [9] [nM] | GI50 [5] [nM]
1 | O=C(O)C1C(C(=O)Nc2ccc3c(c2)Cc2ccccc2-3)C2(Cl)C(Cl)=C(Cl)C1(Cl)C2(Cl)Cl (centres undefined) | > 100 | 97.6 | 49.2 | 44.4 | 13.5 | 35.9 | 38.6 | 48.2 | 31.1 | – | – | – | – | – | – | – | – | – | – | –
2 | CCCC/C=C/C1Cc2ccccc2CN1S(=O)(=O)c1ccc(C)cc1 (centres undefined) | – | > 100 | – | 26.9 | > 100 | 24.1 | 82.3 | 17.9 | 27.5 | 41.8 | – | – | – | – | – | – | – | – | – | –
3 | O=S(O)CCCCCSSCCCCSSCCCCCS(=O)O | > 100 | > 100 | – | > 100 | > 100 | > 100 | > 100 | > 100 | > 100 | – | – | – | – | – | – | – | – | – | – | –
4 | Cn1c2c(c3ccccc31)C1CCCCC1C1C(=O)NC(=O)C21 (centres undefined) | – | > 100 | – | > 100 | > 100 | 58 | > 100 | – | > 100 | > 100 | – | – | – | – | – | – | – | – | – | –
5 | CN1CCCNc2c(c(=O)c2=O)NCCCN(C)CCCNc2c(c(=O)c2=O)NCCCN(C)CCCNc2c(c(=O)c2=O)NCCCN(C)CCCNc2c(c(=O)c2=O)NCCCN(C)CCCNc2c(c(=O)c2=O)NCCCN(C)CCCNc2c(c(=O)c2=O)NCCCN(C)CCCNc2c(c(=O)c2=O)NCCC1 | 13.1 | 15.8 | 31.2 | 23.8 | – | 15.1 | 20.6 | 27 | 16.8 | > 50 | 6.14 | 5.54 | 9.15 | 3.13 | 4390 | 9.32 | 12.1 | 3.61 | 2390 | –
6 | CC1C[C@H](OC(N)=O)C(C)CC1=O (some centres undefined) | > 100 | > 100 | – | > 100 | > 100 | > 100 | > 100 | > 100 | > 100 | – | – | – | – | – | – | – | – | – | – | –
7 | C[C@]12CCC[C@H](Cl)C1(O)C[C@H](C(=O)O)CC2 (some centres undefined) | > 100 | > 100 | – | > 100 | > 100 | > 100 | > 100 | > 100 | > 100 | > 100 | – | – | – | – | – | – | – | – | – | –
8 | CC1=CC(=O)CCC2(C)C1CC[C@@H]2OC=O (some centres undefined) | > 100 | > 100 | – | > 100 | > 100 | > 100 | > 100 | > 100 | > 100 | > 100 | – | – | – | – | – | – | – | – | – | –
9 | COc1ccc2oc3c4c2c1CCC4CCC3=O (centres undefined) | – | > 100 | – | > 100 | > 100 | > 100 | > 100 | 31.2 | > 100 | > 100 | – | – | – | – | – | – | – | – | – | –
10 | CSC(C1c2ccccc2N(C)C2=NC(=O)N(C)C(=O)C21Cl)S(=O)(=O)c1ccc(C)cc1 (centres undefined) | 48 | > 100 | – | > 100 | 43.5 | 43.3 | > 100 | > 100 | > 100 | – | – | – | – | – | – | – | – | – | – | –
11 | CN1C2(c3ccccc3)c3c(-c4ccccc4)sc(-c4ccccc4)c3C1(c1ccccc1)C1C(=O)N(c3ccccc3)C(=O)C12 (centres undefined) | > 100 | > 100 | – | > 100 | > 100 | > 100 | > 100 | > 100 | > 100 | – | – | – | – | – | – | – | – | – | – | –
12 | CC(C)c1ccccc1NC(=O)C(=O)Cc1nc2ccccc2s1 | > 100 | > 100 | – | > 100 | – | > 100 | – | > 100 | > 100 | > 100 | – | – | – | – | – | – | – | – | – | –
13 | Cc1ccc(C2NC(=S)NC3=C2CCOc2c3ccc3ccccc23)cc1 (centres undefined) | 11.7 | – | > 100 | – | > 100 | – | > 100 | > 100 | – | – | 3.07 | – | > 100 | – | – | > 100 | – | > 100 | – | 4360
14 | CC(=O)N1CC(Nc2ccc(OC(F)(F)F)cc2)=CC1=O | > 100 | – | > 100 | > 100 | > 100 | 4.03 | > 100 | > 100 | > 100 | 52.2 | 3.05 | – | 3.11 | 7.81 | 1190 | > 100 | 0.532 | > 100 | 821 | 526
15 | COc1ccc(-c2ccc(/C=N/n3c(COc4ccccc4Cl)nn(CN4CCN(C)CC4)c3=S)o2)c([N+](=O)[O-])c1 | 14.6 | 70.5 | 81.4 | – | – | – | 46.6 | – | 44.9 | – | 5.19 | 21.5 | 38.7 | – | – | 21.6 | – | – | 19200 | –
16 | CCCCCCCC/C=C/CCCCCCCC1=NCC[N+]1(CCO)CCO | 8.32 | 26.4 | 7.66 | 3.35 | 4.34 | 4.42 | 18.9 | 8.42 | 21.4 | – | 2.41 | 4.71 | 2.16 | 1.59 | 1940 | 4.98 | – | 2.25 | 5000 | 1520
17 | CC(=O)c1c(C(F)(F)F)n([O-])c2ccc(Cl)cc2[n+]1=O | 13.5 | 2.29 | > 26.5 | – | 3.52 | 8.13 | 18.6 | 20.8 | 3.45 | – | 3.69 | 0.818 | 6.65 | 0.322 | 2640 | 2.74 | – | 4 | 916 | 509
18 | CCOC(=O)C(=O)Nc1ccc(C)cc1C | > 100 | > 100 | – | > 100 | > 100 | > 100 | > 100 | > 100 | > 100 | > 100 | – | – | – | – | – | – | – | – | – | –
19 | N#Cc1c(-c2ccc(Cl)cc2)n(O)c2ccccc12 | 5.2 | 15.7 | – | 8.52 | > 100 | 6.39 | > 100 | 6.31 | 12.3 | – | 1.95 | 3.11 | – | 3.15 | 2600 | 4.08 | – | 2.27 | 2790 | 949
20 | CC(=O)C1CC=C(C)CC1 (centres undefined) | > 100 | > 100 | – | > 100 | > 100 | > 100 | > 100 | > 100 | > 100 | > 100 | – | – | – | – | – | – | – | – | – | –
